{"source": "patent US9956211B2", "about": "“Pharmaceutical compositions comprising a local anaesthetic such as bupivacaine for local administration to the mouth or throat” (MOBERG PHARMA AB, priority 2011, dated 2018)", "key": {"[1]": {"conditions": "cited from earlier work"}, "[2]": {"test": "Study II: multiple doses kinetics", "type": "in vivo, human", "conditions": "25 mg lozenge four times a day, 72 hours", "experimental": "(§1) These are prospective, descriptive studies. The subjects were ten healthy young males. Samples of full blood were taken in lithium-heparin pipes for anticoagulant effect. After the blood sample is collected it is centrifuged at 2500 rounds per minute for 15 minutes at 4° C. Approximately 1 ml plasma is taken from the sample and put into vials and right away put into a −80° C. freezer, where it is kept until analysis.\nThe multiple doses study was conducted over 72 hours consecutively, where the subjects were administrated a lozenge containing 25 mg of bupivacaine four times a day in the awake hours.\nThe aim of the study was to measure the concentration of bupivacaine in the blood after absorption from an intact oral mucosa after administration of a lozenge containing 25 mg of bupivacaine given four times a day. […] Therefore the lozenges were administered at 8 am, […], 6 pm and 10 pm, to give a total daily dose of 100 mg bupivacaine.\nThe subjects drank 250 ml water to remove any traces of coffee, cola or other potential absorption enhancers. After 10 minutes a compressed lozenge was administered."}, "[3]": {"conditions": "safety pharmacology, single and repeated dose toxicity, reproduction toxicity, mutagenic potential, local toxicity; cited from earlier work"}, "[4]": {"test": "Study I: single dose kinetics of compressed bupivacaine lozenge", "type": "in vivo, human", "experimental": "Bupivacaine has not been used as local oral administration before.\nThe purpose of this study is to investigate the pharmacokinetics of bupivacaine after topical oral administration. The plasma concentration of bupivacaine is measured after absorption over an intact oral mucosa after administration of a compressed lozenge containing respectively 5, 10, 25 and 50 mg bupivacaine as a single dose and 25 mg as multiple doses.\nas §1\nThe aim of the study was to investigate the pharmacokinetics of bupivacaine by topical oral administration. The concentration of bupivacaine was measured in the blood after absorption from an intact oral mucosa after administration of a compressed lozenge containing respectively 5, 10 or 25 mg of bupivacaine. On study days 1, 2, 3 and 4 (interspersed with single wash-out days) the subjects were given one 5 mg lozenge, one 10 mg lozenge, one 25 mg lozenge or two 25 mg lozenges, respectively.\nBefore the study began, the subjects drank 250 ml water to remove any traces of coffee, cola or other potential absorption enhancers. After 10 minutes a compressed lozenge was administered. […] A baseline blood sample was taken, the lozenge was administered and then blood samples were taken at 0 min (i.e. when the lozenge has completely dissolved in the mouth, 15 min, 30 min, 45 min, 60 min, 75 min, 90 min, 105 min, 120 min, 150 min, 180 min, 210 min, 240 min, 270 min, 300 min, 330 min and 360 min."}, "[5]": {"test": "Pilot study Aarhus: kinetics, non-intact mucosa", "type": "in vivo, human", "conditions": "25 mg lozenge, three head or neck cancer patients, stage 3 mucositis, non-intact oral mucosa", "experimental": "The study was conducted over 2-3 hours on three patients from Aarhus University hospital. The patients were suffering from head or neck cancer with stage 3 mucositis with a non-intact oral mucosa. The aim of the study was to investigate the pharmacokinetics of bupivacaine by topical oral administration of a 25 mg lozenge. A baseline blood sample was taken, followed by administration of the lozenge, and then blood samples were taken at 0 min (i.e. when the lozenge is completely dissolved in the mouth), 15 min, 30 min, 45 min, 60 min, 75 min, 90 min, 105 min, 120 min, 150 min and 180 min."}, "[6]": {"test": "Study VII: single dose kinetics, fasting", "type": "in vivo, human", "conditions": "25 mg compressed lozenge, fasting vs not fasting", "experimental": "The single dose kinetics was conducted over 10 hours. The subjects had been fasting from 12 pm the night before the study began. The subjects were administrated a compressed lozenge containing 25 mg of bupivacaine. The blood collection began at approximately 7 am.\nIn our previous results we have seen an extra peak. The aim of this study was to investigate if the extra peak was from gastrointestinal absorption.\nBaseline blood sample. Administration of lozenge. Blood sample at the following times: 0 min, 15 min, 30 min, 45 min, 60 min, 75 min, 90 min, 105 min, 120 min, 150 min, 180 min, 210 min, 240 min, 300 min, 360 min, 420 min, 480 min, 540 min and 600 min. (Time 0 minutes is when the lozenge is completely dissolved in the mouth.)"}, "[7]": {"conditions": "plasma concentration; cited from earlier work"}, "[8]": {"test": "Activity after heating during the casting process", "type": "physicochemical", "conditions": "heated at up to 180° C. during the casting process"}, "[9]": {"conditions": "standard aqueous medium, pH7.4, 25° C."}}, "note": "Read-outs that look alike come from different tables or passages of the source.", "data": [{"compound": "CCCN(CC)C(CC)C(=O)Nc1c(C)cccc1C", "note": "(stereo not drawn) [etidocaine]", "values": [{"measurement": "octanol/water partition coefficient", "setting": "[1]; [9]", "result": 800}]}, {"compound": "CCCCN1CCCCC1C(=O)Nc1c(C)cccc1C", "note": "(stereo not drawn) [bupivacaine, 1-butyl-N-(2,6-dimethylphenyl)piperidine-2-carboxamide]", "values": [{"measurement": "accumulation in the body", "setting": "[2]", "result": "not being accumulated in the body"}, {"measurement": "peak plasma concentrations", "setting": "[2]", "result": "lower than the toxic level"}, {"measurement": "octanol/water partition coefficient", "setting": "[1]; [9]", "result": 346}, {"measurement": "risks for humans from preclinical safety data", "setting": "[3]", "result": "no special risks for humans"}, {"measurement": "discomfort", "setting": "[4]; 5 mg and 10 mg compressed lozenge", "result": "none of them felt any discomfort"}, {"measurement": "anesthetic effect felt", "setting": "[4]; 5 mg and 10 mg compressed lozenge, healthy subjects", "result": "felt the anesthetic effect"}, {"measurement": "discomfort, especially in the pharynx", "setting": "[4]; 25 mg compressed lozenge", "result": "some of the subjects felt discomfort"}, {"measurement": "discomfort", "setting": "[4]; 50 mg (two 25 mg lozenges)", "result": "discomfort was further increased"}, {"measurement": "side effects", "setting": "[4]; 5, 10, 25 and 50 mg single doses", "result": "None of the subjects experienced any side effects"}, {"measurement": "maximum bupivacaine plasma concentration", "setting": "[4]; maximum dosage 50 mg (two 25 mg compressed lozenges), single dose, intact oral mucosa, healthy subjects", "result": "less than 600 ng/ml"}, {"measurement": "maximum plasma concentration of bupivacaine", "setting": "[5]", "result": "below 700 ng/ml"}, {"measurement": "influence of fasting on plasma level", "setting": "[6]", "result": "did not influence the results"}, {"measurement": "toxic level in man", "setting": "[7]", "result": "2 to 4", "unit": "µg/mL"}, {"measurement": "activity after heating", "setting": "[8]", "result": "retains full activity"}]}, {"compound": "CCOC(=O)c1ccc(N)cc1", "note": "[benzocaine]", "values": [{"measurement": "octanol/water partition coefficient", "setting": "[1]; [9]", "result": 81}]}, {"compound": "levobupivacaine", "values": [{"measurement": "octanol/water partition coefficient", "setting": "[1]; pH 7.4", "result": 346}]}, {"compound": "CCCN1CCCC[C@H]1C(=O)Nc1c(C)cccc1C", "note": "[ropivacaine]", "values": [{"measurement": "octanol/water partition coefficient", "setting": "[1]; [9]", "result": 115}]}]}
